Earlier results as cited in paper PMC8513935.

How the values were obtained:
[1] = log P octanol/water from commercial databases, averaged (the ESI); conditions: Octanol (wet), 25 C
[2] = experimental, compiled by the authors from the literature (the ESI cites the sources)
[3] = derived by the authors as gas->solvent minus gas->water (a hypothetical dry solvent; the ESI), not a two-phase measurement

CC(C)(C)c1ccccc1
log K of transfer, water to solvent [1]: 4.11 log10 K
log K of transfer, gas to solvent ([2]; Hexadecane, 25 C): 4.41 log10 K
log K of transfer, gas to solvent ([2]; Methanol, 25 C): 4.05 log10 K
log K of transfer, gas to solvent ([2]; Propan-2-ol, 25 C): 4.1 log10 K
log K of transfer, gas to solvent ([2]; Tetrahydrofuran, 25 C): 5.09 log10 K
log K of transfer, gas to solvent ([2]; Water, 25 C): 0.32 log10 K
log K of transfer, water to solvent ([3]; Hexadecane, 25 C): 4.09 log10 K
log K of transfer, water to solvent ([3]; Methanol, 25 C): 3.73 log10 K
log K of transfer, water to solvent ([3]; Propan-2-ol, 25 C): 3.78 log10 K
log K of transfer, water to solvent ([3]; Tetrahydrofuran, 25 C): 4.77 log10 K

CN(C)C
log K of transfer, water to solvent [1]: 0.19 log10 K
log K of transfer, gas to solvent ([2]; Benzene, 25 C): 2.05 log10 K
log K of transfer, gas to solvent ([2]; Butan-1-ol, 25 C): 2.13 log10 K
log K of transfer, gas to solvent ([2]; CCl4, 25 C): 2.12 log10 K
log K of transfer, gas to solvent ([2]; Chlorobenzene, 25 C): 2.05 log10 K
log K of transfer, gas to solvent ([2]; Chloroform, 25 C): 2.86 log10 K
log K of transfer, gas to solvent ([2]; Cyclohexane, 25 C): 1.93 log10 K
log K of transfer, gas to solvent ([2]; Diethyl Ether, 25 C): 1.73 log10 K
log K of transfer, gas to solvent ([2]; Ethanol, 25 C): 2.67 log10 K
log K of transfer, gas to solvent ([2]; Hexadecane, 25 C): 1.62 log10 K
log K of transfer, gas to solvent ([2]; Hexane, 25 C): 1.93 log10 K
log K of transfer, gas to solvent ([2]; Octan-1-ol, 25 C): 1.94 log10 K
log K of transfer, gas to solvent ([2]; Propan-1-ol, 25 C): 2.56 log10 K
log K of transfer, gas to solvent ([2]; Propanone, 25 C): 1.88 log10 K
log K of transfer, gas to solvent ([2]; Toluene, 25 C): 1.99 log10 K
log K of transfer, gas to solvent ([2]; Water, 25 C): 2.35 log10 K
log K of transfer, water to solvent ([3]; Acetone, 25 C): -0.47 log10 K
log K of transfer, water to solvent ([3]; Benzene, 25 C): -0.3 log10 K
log K of transfer, water to solvent ([3]; Butan-1-ol, 25 C): -0.22 log10 K
log K of transfer, water to solvent ([3]; CCl4, 25 C): -0.23 log10 K
log K of transfer, water to solvent ([3]; Chlorobenzene, 25 C): -0.3 log10 K
log K of transfer, water to solvent ([3]; Chloroform, 25 C): 0.51 log10 K
log K of transfer, water to solvent ([3]; Cyclohexane, 25 C): -0.42 log10 K
log K of transfer, water to solvent ([3]; Diethyl Ether, 25 C): -0.62 log10 K
log K of transfer, water to solvent ([3]; Ethanol, 25 C): 0.32 log10 K
log K of transfer, water to solvent ([3]; Hexadecane, 25 C): -0.73 log10 K
log K of transfer, water to solvent ([3]; Hexane, 25 C): -0.424 log10 K
log K of transfer, water to solvent ([3]; Octan-1-ol(dry), 25 C): -0.41 log10 K
log K of transfer, water to solvent ([3]; Propan-1-ol, 25 C): 0.21 log10 K
log K of transfer, water to solvent ([3]; Toluene, 25 C): -0.36 log10 K
